{"source": "paper PMC5218480", "about": "(PLoS ONE, 2017)", "tested_on": "MV-4-11 cells", "assay": "Gene expression microarray analysis (Affymetrix PrimeView) and GSEA", "format": "cell-based, human", "set-up": "RFU PODN (11730768_x_at) / Fold change /veh PODN (11730768_x_at) / RFU LINC00158 (11744669_a_at) / Fold change /veh LINC00158 (11744669_a_at) / RFU DUSP10 (11751237_a_at) / Fold change /veh DUSP10 (11751237_a_at) / RFU ID3 (11757404_x_at) / Fold change /veh ID3 (11757404_x_at) / RFU PLEKHG5 (11737974_s_at) / Fold change /veh PLEKHG5 (11737974_s_at) / RFU LRRC4B (11730491_at) / Fold change /veh LRRC4B (11730491_at) / RFU GIMAP4 (11747438_a_at) / Fold change /veh GIMAP4 (11747438_a_at) / RFU KRT8 (11758183_x_at) / Fold change /veh KRT8 (11758183_x_at) / RFU CNN1 (11734310_a_at) / Fold change /veh CNN1 (11734310_a_at) / RFU VPS37D (11726825_at) / Fold change /veh VPS37D (11726825_at) / RFU C10orf10 (11716522_x_at) / Fold change /veh C10orf10 (11716522_x_at) / RFU KIR2DL2 /// KIR2DL4 /// KIR2DL5A /// KIR2DL5B /// KIR2DS1 /// KIR2DS2 /// KIR2DS3 /// KIR2DS4 /// KIR3DL3 /// KIR3DL3 /// KIR3DS1 (11738374_at) / Fold change /veh KIR2DL2 /// KIR2DL4 /// KIR2DL5A /// KIR2DL5B /// KIR2DS1 /// KIR2DS2 /// KIR2DS3 /// KIR2DS4 /// KIR3DL3 /// KIR3DL3 /// KIR3DS1 (11738374_at) / RFU C1QL1 (11718748_at) / Fold change /veh C1QL1 (11718748_at) / RFU TMPRSS4 (11747572_a_at) / Fold change /veh TMPRSS4 (11747572_a_at) / RFU HAMP (11756126_x_at) / Fold change /veh HAMP (11756126_x_at) / RFU RNFT2 (11725882_a_at) / Fold change /veh RNFT2 (11725882_a_at) / RFU NR4A2 (11747474_a_at) / Fold change /veh NR4A2 (11747474_a_at) / RFU ABCC12 (11746883_a_at) / Fold change /veh ABCC12 (11746883_a_at) / RFU TMEM136 (11760407_x_at) / Fold change /veh TMEM136 (11760407_x_at) / RFU CLDN22 /// WWC2 (11732394_at) / Fold change /veh CLDN22 /// WWC2 (11732394_at) / RFU HLA-DPB1 (11760878_x_at) / Fold change /veh HLA-DPB1 (11760878_x_at) / RFU SPINT1 (11716480_a_at) / Fold change /veh SPINT1 (11716480_a_at) / RFU GAP43 (11754022_s_at) / Fold change /veh GAP43 (11754022_s_at) / RFU A4GNT (11735810_at) / Fold change /veh A4GNT (11735810_at) / RFU PRB3 (11715151_x_at) / Fold change /veh PRB3 (11715151_x_at) / RFU TUBB4B (11761932_at) / Fold change /veh TUBB4B (11761932_at) / RFU CAPN14 (11732068_a_at) / Fold change /veh CAPN14 (11732068_a_at) / RFU TMCC2 (11721928_a_at) / Fold change /veh TMCC2 (11721928_a_at) / RFU IRGQ (11745062_a_at) / Fold change /veh IRGQ (11745062_a_at) / RFU FAM174B (11720279_a_at) / Fold change /veh FAM174B (11720279_a_at) / RFU TMPRSS4 (11748680_a_at) / Fold change /veh TMPRSS4 (11748680_a_at) / RFU FAM212B (11763350_a_at) / Fold change /veh FAM212B (11763350_a_at) / RFU PLEKHG5 (11743358_a_at) / Fold change /veh PLEKHG5 (11743358_a_at) / RFU ZSCAN30 (11745921_a_at) / Fold change /veh ZSCAN30 (11745921_a_at) / RFU CMKLR1 (11741424_a_at) / Fold change /veh CMKLR1 (11741424_a_at) / RFU LOC101060620 /// MAPK8IP1 (11723275_at) / Fold change /veh LOC101060620 /// MAPK8IP1 (11723275_at) / RFU SPTSSB (11747773_x_at) / Fold change /veh SPTSSB (11747773_x_at) / RFU PRSS12 (11739890_at) / Fold change /veh PRSS12 (11739890_at) / RFU BIN1 (11741810_x_at) / Fold change /veh BIN1 (11741810_x_at) / RFU WNT11 (11732464_a_at) / Fold change /veh WNT11 (11732464_a_at) / RFU C10orf10 (11716521_a_at) / Fold change /veh C10orf10 (11716521_a_at) / RFU C5orf56 (11738089_at) / Fold change /veh C5orf56 (11738089_at) / RFU CYB561 (11721691_x_at) / Fold change /veh CYB561 (11721691_x_at) / RFU ANKRD19P (11752326_a_at) / Fold change /veh ANKRD19P (11752326_a_at) / RFU OR2T12 /// OR2T33 /// OR2T8 (11738714_s_at) / Fold change /veh OR2T12 /// OR2T33 /// OR2T8 (11738714_s_at) / RFU VCAN (11748164_a_at) / Fold change /veh VCAN (11748164_a_at) / RFU JSRP1 (11732532_at) / Fold change /veh JSRP1 (11732532_at) / RFU KRTAP10-11 (11738290_x_at) / Fold change /veh KRTAP10-11 (11738290_x_at) / RFU MYO3A (11730013_a_at) / Fold change /veh MYO3A (11730013_a_at) / RFU EBF3 (11725865_a_at) / Fold change /veh EBF3 (11725865_a_at) / RFU CAMK2N1 (11719241_x_at) / Fold change /veh CAMK2N1 (11719241_x_at) / RFU C5orf56 (11738088_a_at) / Fold change /veh C5orf56 (11738088_a_at) / RFU OLFML3 (11715873_a_at) / Fold change /veh OLFML3 (11715873_a_at) / RFU LOC100653217 /// NTM (11731650_a_at) / Fold change /veh LOC100653217 /// NTM (11731650_a_at) / RFU MAPK11 (11762145_a_at) / Fold change /veh MAPK11 (11762145_a_at) / RFU FIZ1 (11724087_x_at) / Fold change /veh FIZ1 (11724087_x_at) / RFU OASL (11726364_x_at) / Fold change /veh OASL (11726364_x_at) / RFU SOX15 (11748057_x_at) / Fold change /veh SOX15 (11748057_x_at) / RFU CD79A (11719716_a_at) / Fold change /veh CD79A (11719716_a_at) / RFU HIST1H1D (11736915_at) / Fold change /veh HIST1H1D (11736915_at) / RFU CASKIN2 (11723855_a_at) / Fold change /veh CASKIN2 (11723855_a_at) / RFU LOC730098 (11760151_x_at) / Fold change /veh LOC730098 (11760151_x_at) / RFU OR4N2 (11742367_at) / Fold change /veh OR4N2 (11742367_at) / RFU PRRT2 (11749266_a_at) / Fold change /veh PRRT2 (11749266_a_at) / RFU SNX32 (11753110_a_at) / Fold change /veh SNX32 (11753110_a_at) / RFU CDHR5 (11726645_a_at) / Fold change /veh CDHR5 (11726645_a_at) / RFU RCAN1 (11760418_a_at) / Fold change /veh RCAN1 (11760418_a_at) / RFU FAM167A (11723789_a_at) / Fold change /veh FAM167A (11723789_a_at) / RFU FAM26E (11764081_at) / Fold change /veh FAM26E (11764081_at) / RFU ISYNA1 (11749810_s_at) / Fold change /veh ISYNA1 (11749810_s_at) / RFU ACY1 (11761880_at) / Fold change /veh ACY1 (11761880_at) / RFU 11764098_at / Fold change /veh 11764098_at / RFU SAMD14 (11745864_x_at) / Fold change /veh SAMD14 (11745864_x_at) / RFU NPB (11741838_a_at) / Fold change /veh NPB (11741838_a_at) / RFU TMPRSS6 (11731388_a_at) / Fold change /veh TMPRSS6 (11731388_a_at) / RFU KRTAP10-2 (11738614_at) / Fold change /veh KRTAP10-2 (11738614_at) / RFU ARHGAP8 /// PRR5-ARHGAP8 (11727945_x_at) / Fold change /veh ARHGAP8 /// PRR5-ARHGAP8 (11727945_x_at) / RFU KRTAP5-7 /// NADSYN1 (11734609_at) / Fold change /veh KRTAP5-7 /// NADSYN1 (11734609_at) / RFU RASL12 (11751679_a_at) / Fold change /veh RASL12 (11751679_a_at) / RFU CDKN2B (11736163_a_at) / Fold change /veh CDKN2B (11736163_a_at) / RFU PRF1 (11729649_at) / Fold change /veh PRF1 (11729649_at) / RFU, ZNF638 /// ZNF638-IT1 / Fold change vs veh, ZNF638 /// ZNF638-IT1 / RFU, PANK3 / Fold change vs veh, PANK3 / RFU, SH3YL1 / Fold change vs veh, SH3YL1 / RFU, ZEB2 / Fold change vs veh, ZEB2 / RFU, NRIP1 / Fold change vs veh, NRIP1 / RFU, PTTG1IP / Fold change vs veh, PTTG1IP / RFU, CAPN2 / Fold change vs veh, CAPN2 / RFU, MED14 / Fold change vs veh, MED14 / RFU, SNORA58 / Fold change vs veh, SNORA58 / RFU, C1orf63 / Fold change vs veh, C1orf63 / RFU, LRRFIP1 / Fold change vs veh, LRRFIP1 / RFU, NDUFAF7 / Fold change vs veh, NDUFAF7 / RFU, SLC12A2 / Fold change vs veh, SLC12A2 / RFU, IBTK / Fold change vs veh, IBTK / RFU, ESF1 / Fold change vs veh, ESF1 / Fold change vs veh, TMEM50B / RFU, TAOK1 / Fold change vs veh, TAOK1 / RFU, ACBD3 / Fold change vs veh, ACBD3 / RFU, TMA16 / Fold change vs veh, TMA16 / RFU, RWDD3 / Fold change vs veh, RWDD3 / RFU, BCAT1 / Fold change vs veh, BCAT1 / RFU, EDEM3 / Fold change vs veh, EDEM3 / RFU, TMEM33 / Fold change vs veh, TMEM33 / RFU, WDR75 / Fold change vs veh, WDR75 / RFU, AHCTF1 / Fold change vs veh, AHCTF1 / RFU, TFRC / Fold change vs veh, TFRC / RFU, ZDHHC17 / Fold change vs veh, ZDHHC17 / RFU, NOM1 / Fold change vs veh, NOM1 / RFU, ARL8B / Fold change vs veh, ARL8B / RFU, ZBTB11 / Fold change vs veh, ZBTB11 / RFU, TAMM41 / Fold change vs veh, TAMM41 / RFU, KIAA1704 /// LOC100996395 / Fold change vs veh, KIAA1704 /// LOC100996395 / RFU, ING1 / Fold change vs veh, ING1 / RFU, TRMT61B / Fold change vs veh, TRMT61B / RFU, FUBP3 / Fold change vs veh, FUBP3 / RFU, TP53 / Fold change vs veh, TP53 / RFU, TNKS2 / Fold change vs veh, TNKS2 / RFU, ZFP14 / Fold change vs veh, ZFP14 / RFU, ACTR2 / Fold change vs veh, ACTR2 / RFU, PPP3R1 / Fold change vs veh, PPP3R1 / RFU, PIK3R1 / Fold change vs veh, PIK3R1 / RFU, HNRNPA1 / Fold change vs veh, HNRNPA1 / RFU, RNF170 / Fold change vs veh, RNF170 / RFU, ZNF28 / Fold change vs veh, ZNF28 / RFU, RNGTT / Fold change vs veh, RNGTT / RFU, OGT / Fold change vs veh, OGT / RFU, BRD1 / Fold change vs veh, BRD1 / RFU, MARS / Fold change vs veh, MARS / RFU, ZNF655 / Fold change vs veh, ZNF655 / RFU, FAHD1 / Fold change vs veh, FAHD1 / RFU, BDP1 / Fold change vs veh, BDP1 / RFU, LRRCC1 / Fold change vs veh, LRRCC1 / RFU, ARID1A / Fold change vs veh, ARID1A / RFU, ZNF146 / Fold change vs veh, ZNF146 / RFU, ZNF330 / Fold change vs veh, ZNF330 / RFU, GPN3 / Fold change vs veh, GPN3 / RFU, C9orf123 / Fold change vs veh, C9orf123 / RFU, N4BP2L2 / Fold change vs veh, N4BP2L2 / RFU, ARFIP1 / Fold change vs veh, ARFIP1 / RFU, FAM179B / Fold change vs veh, FAM179B / RFU, BCL10 / Fold change vs veh, BCL10 / RFU, UHRF1BP1L / Fold change vs veh, UHRF1BP1L / RFU, BET1 / Fold change vs veh, BET1 / RFU, CNOT2 / Fold change vs veh, CNOT2 / RFU, ZNF268 / Fold change vs veh, ZNF268 / Fold change vs veh, ZNF507 / RFU, DGCR2 / Fold change vs veh, DGCR2 / RFU, WDSUB1 / Fold change vs veh, WDSUB1 / Fold change vs veh, HSP90B1 /// MIR3652 / RFU, ADSS / Fold change vs veh, ADSS / RFU, GK / Fold change vs veh, GK / RFU, ZNF148 / Fold change vs veh, ZNF148 / RFU, TAF9 / Fold change vs veh, TAF9 / RFU, SLC1A5 / Fold change vs veh, SLC1A5 / RFU, SLMO2 / Fold change vs veh, SLMO2 / RFU, ABCC4 / Fold change vs veh, ABCC4 / RFU, LOC101060439 /// RAP1B / Fold change vs veh, LOC101060439 /// RAP1B / RFU, RFX7 / Fold change vs veh, RFX7 / RFU, GTPBP10 / Fold change vs veh, GTPBP10 / RFU, CNEP1R1 / Fold change vs veh, CNEP1R1 / RFU, BIVM-ERCC5 /// ERCC5 / Fold change vs veh, BIVM-ERCC5 /// ERCC5 / RFU, ILF3 / Fold change vs veh, ILF3 / RFU 11762660_at / Fold change /veh 11762660_at / RFU VCAN (11757783_s_at) / Fold change /veh VCAN (11757783_s_at) / RFU DDX43 (11728927_at) / Fold change /veh DDX43 (11728927_at) / RFU KRT8 (11758188_x_at) / Fold change /veh KRT8 (11758188_x_at) / RFU NKD1 (11759106_at) / Fold change /veh NKD1 (11759106_at) / RFU SRD5A1 (11742802_a_at) / Fold change /veh SRD5A1 (11742802_a_at) / RFU TPSAB1 /// TPSB2 (11721975_s_at) / Fold change /veh TPSAB1 /// TPSB2 (11721975_s_at) / RFU GSTM3 (11746129_a_at) / Fold change /veh GSTM3 (11746129_a_at) / RFU IL23R (11737362_x_at) / Fold change /veh IL23R (11737362_x_at) / RFU TMEM51 (11727254_a_at) / Fold change /veh TMEM51 (11727254_a_at) / RFU PIWIL2 (11732686_x_at) / Fold change /veh PIWIL2 (11732686_x_at) / RFU ORM1 (11744905_x_at) / Fold change /veh ORM1 (11744905_x_at) / RFU CCDC152 (11743942_at) / Fold change /veh CCDC152 (11743942_at) / RFU ECM1 (11717891_a_at) / Fold change /veh ECM1 (11717891_a_at) / RFU IL23R (11748794_a_at) / Fold change /veh IL23R (11748794_a_at) / RFU TNFAIP8L3 (11732012_x_at) / Fold change /veh TNFAIP8L3 (11732012_x_at) / RFU MBOAT4 (11741988_at) / Fold change /veh MBOAT4 (11741988_at) / RFU 11764193_at / Fold change /veh 11764193_at / RFU TMEM53 (11763286_at) / Fold change /veh TMEM53 (11763286_at) / RFU MAGEB2 (11727129_at) / Fold change /veh MAGEB2 (11727129_at) / RFU TMEM200A (11744735_a_at) / Fold change /veh TMEM200A (11744735_a_at) / RFU CCDC152 (11751479_a_at) / Fold change /veh CCDC152 (11751479_a_at) / RFU FAM211A (11726209_a_at) / Fold change /veh FAM211A (11726209_a_at) / RFU RGS16 (11746705_a_at) / Fold change /veh RGS16 (11746705_a_at) / RFU VCAN (11755009_s_at) / Fold change /veh VCAN (11755009_s_at) / RFU RHOB (11743442_s_at) / Fold change /veh RHOB (11743442_s_at) / RFU RGS16 (11720943_a_at) / Fold change /veh RGS16 (11720943_a_at) / RFU RGS16 (11720944_at) / Fold change /veh RGS16 (11720944_at) / RFU, VPS4B / Fold change vs veh, VPS4B / RFU, CREB1 / Fold change vs veh, CREB1 / RFU, DNAJC13 / Fold change vs veh, DNAJC13 / RFU, GNAQ / Fold change vs veh, GNAQ / RFU, CDK5R1 / Fold change vs veh, CDK5R1 / RFU, ZRANB3 / Fold change vs veh, ZRANB3 / RFU, CUL4A / Fold change vs veh, CUL4A / RFU, CCNY / Fold change vs veh, CCNY / RFU, UFL1 / Fold change vs veh, UFL1 / RFU, COG3 / Fold change vs veh, COG3 / RFU, DIAPH2 / Fold change vs veh, DIAPH2 / RFU, SKA2 / Fold change vs veh, SKA2 / RFU, AFF3 / Fold change vs veh, AFF3 / RFU, LMF1 / Fold change vs veh, LMF1 / RFU, IPO11 / Fold change vs veh, IPO11 / RFU, DFFB / Fold change vs veh, DFFB / RFU, FOXP1 / Fold change vs veh, FOXP1 / RFU, CARD8 / Fold change vs veh, CARD8 / RFU, STRN3 / Fold change vs veh, STRN3 / RFU, ADK / Fold change vs veh, ADK / RFU, RASSF2 / Fold change vs veh, RASSF2 / RFU, WIPF1 / Fold change vs veh, WIPF1 / RFU, LARP1B / Fold change vs veh, LARP1B / RFU, RASA1 / Fold change vs veh, RASA1 / RFU, RB1 / Fold change vs veh, RB1 / RFU, PPFIA1 / Fold change vs veh, PPFIA1 / RFU, MAT2A / Fold change vs veh, MAT2A / RFU, CCT5 / Fold change vs veh, CCT5 / RFU, WDR92 / Fold change vs veh, WDR92 / RFU, CUX1 / Fold change vs veh, CUX1 / RFU, TTC7A / Fold change vs veh, TTC7A / RFU, TMEM135 / Fold change vs veh, TMEM135 / RFU, DEPTOR / Fold change vs veh, DEPTOR / RFU, CPM / Fold change vs veh, CPM / RFU, DNAJB6 / Fold change vs veh, DNAJB6 / RFU, CACNA2D3 / Fold change vs veh, CACNA2D3 / RFU, DTX4 / Fold change vs veh, DTX4 / RFU, TFCP2 / Fold change vs veh, TFCP2 / RFU, GMCL1 /// GMCL1P1 / Fold change vs veh, GMCL1 /// GMCL1P1 / RFU, AEBP2 / Fold change vs veh, AEBP2 / RFU, SNHG1 /// SNORD22 /// SNORD25 /// SNORD26 /// SNORD27 /// SNORD28 /// SNORD29 /// SNORD31 / Fold change vs veh, SNHG1 /// SNORD22 /// SNORD25 /// SNORD26 /// SNORD27 /// SNORD28 /// SNORD29 /// SNORD31 / Fold change (Aza/veh), C12orf56 (ProbeSet 11735607_a_at) / Fold change (ACY-1035/veh), C12orf56 (ProbeSet 11735607_a_at) / Fold change (Aza/veh), FGFR1OP (ProbeSet 11751329_s_at) / Fold change (ACY-1035/veh), FGFR1OP (ProbeSet 11751329_s_at) / Fold change (Aza/veh), VPS36 (ProbeSet 11739960_a_at) / Fold change (ACY-1035/veh), VPS36 (ProbeSet 11739960_a_at) / RFU SYPL1 (11715823_x_at) / Fold change /veh SYPL1 (11715823_x_at) / RFU IGFBP7 (11715501_s_at) / Fold change /veh IGFBP7 (11715501_s_at) / RFU REEP3 (11722064_at) / Fold change /veh REEP3 (11722064_at) / RFU IGLL1 (11728026_x_at) / Fold change /veh IGLL1 (11728026_x_at): dose or concentration left out as unconfirmed", "conditions": "MV-4-11 cells, 48 hours", "data": [{"smiles": "Nc1ccc(-c2cccs2)cc1NC(=O)c1ccc2c(c1)cc(C1CC1)n2CCN1CCOCC1", "note": "[ACY-1035]", "values": [{"measurement": "Fold change /veh CCDC152 (11743942_at)", "value": 1.01}]}]}
